Test results taken from patent US20030135033A1, “Compounds and methods for the identification and/ or validation of a target” (priority 2002, published 2003).

Columns and labels:
[1] = system: Hela cells; experiment: Cell growth on matrigel; type: cell-based, human; conditions: 48 h transfection, then 48 to 72 h on matrigel, versus control GeneBloc
Excerpt: More particularly, a schematic pathway with PTEN inhibiting PI-3K activity is shown which would normally phosphorylate Akt thus leading to proliferation, survival and migration of HeLa cells as a model system for PTEN +/+ cells. FIG. 9 B presents the Western immunoblot analysis of an experiment studying the influence of PTEN specific antisense oligonucleotide or a control antisense nucleotide designated as mismatch GeneBloc™. PTEN is only present in the control sample, but is absent when PTEN-specific antisense oligonucleotides are used. The successful knockdown of PTEN causes phosphorylation of Akt, indicative of induction of the signalling pathway. […] Growth on matrigel is used as a surrogate in vitro assay for metastatic or invasive cell growth. […]
Loss of PTEN function has been correlated with an increased metastatic growth potential in late stage human cancers (Cantley, L. C. and Neel, B. G. (1999). New insights into tumor suppression: PTEN suppresses tumor formation by restraining the phosphoinositide 3-kinase/AKT pathway. Proc Natl Acad Sci U S A 96, 4240-4245; Ali, I. U. (2000). Gatekeeper for endometrium: the PTEN tumor suppressor gene. J Natl Cancer Inst 92, 861-863). […] HeLa cells expressing an inducible version of a constitutively active PI 3-kinase, p110* […] were analyzed in parallel. […]

[2] = system: 3Y1 cells; experiment: Rate of DNA synthesis by incorporation of bromodeoxyuridine; type: cell-based, rat; conditions: synchronized in low serum, released by serum stimulation
Description: 3Y1 cells plated in 96-wells at 1600 cells per well were transfected in triplicate samples with GeneBloc molecules. After ca. 30 h the cells were starved in DMEM containing 10 mM HEPES (pH 7.2) under continuous GeneBloc treatment. The cells were released into the cell cycle at various time points by addition of 10% serum. Control cells were incubated with 5 μg/ml aphidicolin for 18 h. After pulse-labeling with 10 μM 5-bromo-2′-deoxyururidine (BrdU) for the last 2 h the cells were fixed and permeabilized. The relative amount of BrdU incorporated into each sample was determined by using the Cell Proliferation ELISA, BrdU (colorimetric) (Roche) according to the manufacturer's instructions. Incorporated BrdU was detected by measuring the absorbance at 405 nm and 490 nM using the Spectra Max 190 (Molecular Devices).
3Y1 cells were used, because these untransformed rat fibroblasts are very sensitive to transfection conditons and are prone to arrest or even undergo apoptosis. Subconfluent 3Y1 cells in 96 wells were treated with PTEN GeneBloc 48, GeneBloc 53 or GBC as a control. On day 2 the cells were synchronized in low serum. During days 3 and 4 the cells were released into the cell cycle by serum stimulation at various time points. BrdU was added for the last 2 h of incubation. Untreated cells and cells that were treated with Aphidicolin for 24 h were used as controls. RNA knock down was analyzed in parallel samples. The rate of synthesis was determined via the amount of incorporated BrdU.

[3] = system: 3Y1 cells; experiment: UV-induced apoptosis in 3Y1 cells after GeneBloc treatment (cleaved caspase 3); type: cell-based, rat; conditions: 48 h GeneBloc treatment, UV irradiation
Excerpt: Activation of the P13K pathway interferes with caspase-mediated apoptosis through Akt-activation. Apoptotic stimuli may either be cytokines like TNF, or UV-irradiation. In the present example of which the results of a Western blot analysis are shown in FIG. 7B, UV-irradiation was used as to induce apoptosis. PTEN is an inhibitor of PI-3K action. […] Activated Akt blocks caspases-mediated apoptosis. Apoptosis was monitored by the presence of cleaved Caspase 3.
If knock down of PTEN expression mediated by third generation antisense molecules (GeneBlocs) results in a functional activation of PI 3-kinase signalling, then increased phosphorylation and activation of Akt should interfere with the effects of apoptotic stimuli. […] It was previously shown that rat embryo fibroblasts undergo apoptosis after UV irradiation and that this response can be inhibited by activation of the PI 3-kinase pathway, and specifically by activated Akt (Kulik, G., Klippel, A. and Weber, M. J. (1997). Antiapoptotic signalling by the insulin-like growth factor I receptor, phosphatidylinositol 3-kinase, and Akt. Mol Cell Biol 17, 1595-1606)). We exposed 3Y1 cells to UV light after 48 h GeneBloc treatment. 3 h after irradiation cell extracts were harvested and analyzed for the presence of cleaved caspase 3 which is indicative for apoptosis. […] Cells which were not exposed to UV light after transfection contained very little amounts of cleaved caspase 3.

**Q.** What does the source list for “ucuccuuTTGTTTCTGcuaacga (UCUCCUUTTGTTTCTGCUAACGA; chemistry not fully specified) [PTEN 53, third generation antisense oligonucleotide (GeneBloc) against PTEN]”?
**A.** growth on matrigel [1]: increased potential to form network structures on matrigel and grew better; rate of DNA synthesis (incorporated BrdU) [2]: strong increase in DNA synthesis after 18 h; phosphorylated Akt [3]: phosphorylated Akt is generated
